Data from publication PMC12770539 (Scientific Reports, 2025).

Columns and labels:
[1] = cited from earlier work
[2] = oral administration, 30 mg/kg dose; cited from earlier work
TGA analysis = type: physicochemical
[3] = cited from earlier work; remark: listed apart in the source

Structure (SMILES): C[C@@H]1O[C@@H]1P(=O)(O)O.NC(CO)(CO)CO [Fosfomycin tromethamine]
- elimination half-life [1]: 2 h
- serum concentration (Cmax) ([1]; single 3-gm dose): 26.1 (± 9.1) µg/mL

Structure (SMILES): C[C@@H]1O[C@@H]1P(=O)(O)O [Fosfomycin]
- calculated Tmax [2]: 3.00 ± 0.00 h
- mean peak concentration (Cmax) [2]: 3600 ± 960 ng/mL
- temperature at which degradation initiates (TGA) (TGA analysis): 150 °C
- temperature range of marked weight loss (TGA) (TGA analysis): 200–400 °C

Structure (SMILES): C[C@@H]1O[C@@H]1P(=O)(O)O [Fosfomycin calcium]
- absorption ([1]; oral): 10–30%

Structure (SMILES): Cc1ncc([N+](=O)[O-])n1CCO [Metronidazole]
- local irritation, share of users ([3]; vaginal administration): 10–15%
- cure rate for bacterial vaginosis ([3]; vaginal suppositories, within 7 days): ~80%
